Test results from patent publication US4417052A, “Phenyl-lower-alkyl piperidines and pyrrolidines” (Sterling Drug Inc., priority 1981, dated 1983).
Counter-ions that a name gives are not always drawn.

Key:
[1] = tested on: carrageenin-induced foot edema; assay: inhibition of carrageenin-induced foot edema test (C.E.); type: in vivo; conditions: oral; for C.E. percent inhibition (Table B): formula V amides; for inhibition in vivo at 20 µmol/kg: dose 0.02 millimoles/kg; for inhibition in vivo at 4 µmol/kg: dose 0.004 millimoles/kg
Description: (§1) Anti-inflammatory activity was determined using (1) the inhibition of carrageenin-induced foot edema test essentially described by Winter et al., Proc. Soc. Exp. Biol. and Med. 111, 554 (1962) as modified by Van Arman et al., J. Pharmacol. Exptl. Therap. 150, 328 (1965) and (2) a modification of the inhibition of adjuvant-induced arthritis test described by Pierson, J. Chronic Diseases 16, 863 (1963) and Glenn et al., Am. J. Vet. Res. 26, 1180 (1965).
(§2) The N-{2-,3- and 4-[R1 -(phenyl)-C(=X)]-phenyl-lower-alkyl}amines of formulas I, Ia and Ib of the invention have been tested in the carrageenin edema (CE) and adjuvant arthritis (AA) tests and found to have anti-inflammatory activity. For comparative purposes, data obtained in the carrageenin edema test on the reference compound (designated "Ref."), 4[(3-benzoylphenyl)methyl]morpholine, disclosed in French Patent 1,549,342, are also given. All data were obtained on oral administration.

[2] = tested on: adjuvant-induced arthritis; assay: inhibition of adjuvant-induced arthritis test (A.A.); type: in vivo; conditions: oral; for A.A. percent inhibition (Table B): formula V amides; for inhibition in vivo at 5 µmol/kg: dose 0.005 millimoles/kg; for inhibition in vivo at 20 µmol/kg: dose 0.02 millimoles/kg; for inhibition in vivo at 160 µmol/kg: dose 0.16 millimoles/kg
Description: as §1, §2

[3] = dose 0.324 millimoles/kg, (a) data obtained after 17 days on test and 9 medications
[4] = read-out: C.E. percent inhibition
[5] = dose 0.08 millimoles/kg, read-out: C.E. percent inhibition
[6] = read-out: A.A. percent inhibition
[7] = dose 0.08 millimoles/kg, read-out: A.A. percent inhibition
[8] = dose 0.324 millimoles/kg, read-out: C.E. percent inhibition

SMILES | inhibition in vivo at 20 µmol/kg [1, 4] | inhibition in vivo at 80 µmol/kg [1, 5] | inhibition in vivo at 80 µmol/kg [2, 7] | inhibition in vivo at 324 µmol/kg [1, 8] | inhibition in vivo at 4 µmol/kg [1, 4] | further results
CC(C(=O)N1CCN(C2CCCCC2)CC1)c1cccc(C(=O)c2ccccc2)c1.Cl (stereo not drawn) [Example 1E, 4-Cyclohexyl-1-[α-(3-benzoylphenyl)propionyl]piperazine hydrochloride] |  |  |  |  |  | convulsions and salivation ([1]; C.E. test, dose 0.324 millimoles/kg): Convulsions and salivation produced in 2 of 8 test animals; C.E. percent inhibition (Table B) ([1]; dose 0.08 millimoles/kg): 10%; C.E. percent inhibition (Table B) ([1]; dose 0.324 millimoles/kg): 61%; A.A. percent inhibition (Table B) ([2]; dose 0.08 millimoles/kg): 63%
CC(C(=O)N1CCN(c2ccccc2)CC1)c1cccc(C(=O)c2ccccc2)c1 (stereo not drawn) [Example 1F, 4-Phenyl-1-[α-(3-benzoylphenyl)propionyl]piperazine] |  |  |  |  |  | C.E. percent inhibition (Table B) ([1]; dose 0.08 millimoles/kg): 2%; C.E. percent inhibition (Table B) ([1]; dose 0.324 millimoles/kg): 18%; A.A. percent inhibition (Table B) ([2]; dose 0.324 millimoles/kg): 58%
CC(C(=O)N1CCC(CC2CCCCC2)CC1)c1cccc(C(=O)c2ccccc2)c1 (stereo not drawn) [Example 1L, 4-Cyclohexylmethyl-1-[α-(3-benzoylphenyl)propionyl]piperidine] |  |  |  |  |  | C.E. percent inhibition (Table B) ([1]; dose 0.08 millimoles/kg): 13%; C.E. percent inhibition (Table B, footnote a) [1, 3]: 31%; A.A. percent inhibition (Table B, footnote a) [2, 3]: 74%
COc1ccc(C(O)c2cccc(C(C)CN3CCCCC3CC3CCCCC3)c2)cc1 (stereo not drawn) [Example 3, 2-cyclohexylmethyl-1-{2-[3-(α-hydroxy-4-methoxybenzyl)phenyl]propyl}piperidine] | 3% | 35% | 30% |  |  | inhibition in vivo at 5 µmol/kg ([1]; dose 0.005 millimoles/kg, read-out: C.E. percent inhibition): 0%; inhibition in vivo at 5 µmol/kg [2, 6]: 0%; inhibition in vivo at 20 µmol/kg [2, 6]: 2%
CC(CN1CCCC1CC1CCCCC1)c1cccc(C(O)c2ccccc2)c1 (stereo not drawn) [Example 3B, 2-Cyclohexylmethyl-1-{2-[3-(α-hydroxybenzyl)phenyl]propyl}pyrrolidine] |  | 19% |  | 63% |  | inhibition in vivo at 160 µmol/kg [2, 6]: 91%
COc1ccc(C(=O)c2cccc(C(C)CN3CCCCC3CC3CCCCC3)c2)cc1 (stereo not drawn) [Example 7, 2-cyclohexylmethyl-1-{2-[3-(4-methoxybenzoyl)phenyl]propyl}piperidine] | 22% |  | 63% |  | 0% | 
CC(CN1CCCC1CC1CCCCC1)c1cccc(C(=O)c2ccccc2)c1 (stereo not drawn) [Example 7A, 2-Cyclohexylmethyl-1-[2-(3-benzoylphenyl)propyl]pyrrolidine] |  | 45% |  | 60% |  | inhibition in vivo at 160 µmol/kg [2, 6]: 90%
CC(CN1CCCCC1CC1CCCCC1)c1cccc(C(=O)c2ccc(F)cc2)c1 (stereo not drawn) [Example 7B, 2-Cyclohexylmethyl-1-{2-[3-(4-fluorobenzoyl)phenyl]propyl}piperidine] | 38% |  | 85% |  | 3% | inhibition in vivo at 5 µmol/kg [2, 6]: 61%; inhibition in vivo at 20 µmol/kg [2, 6]: 55%
CC(CN1CCCCC1CCCC1CCCCC1)c1cccc(C(=O)c2ccccc2)c1 (stereo not drawn) [Example 7D, 2-(3-Cyclohexylpropyl)-1-[2-(3-benzoylphenyl)propyl]piperidine] |  | 37% |  | 49% |  | inhibition in vivo at 160 µmol/kg [2, 6]: 100%
CC(CN1C(C)CCCC1C)c1cccc(C(=O)c2ccccc2)c1 (stereo not drawn) [Example 13, 2,6-dimethyl-1-[2-(3-benzoylphenyl)propyl]piperidine] |  | 54% |  | 56% | 0% | inhibition in vivo at 15 µmol/kg ([1]; dose 0.015 millimoles/kg, read-out: C.E. percent inhibition): 15%; inhibition in vivo at 60 µmol/kg ([1]; dose 0.06 millimoles/kg, read-out: C.E. percent inhibition): 37%; inhibition in vivo at 4 µmol/kg ([2]; dose 0.004 millimoles/kg, read-out: A.A. percent inhibition): 37%; inhibition in vivo at 15 µmol/kg ([2]; dose 0.015 millimoles/kg, read-out: A.A. percent inhibition): 52%; inhibition in vivo at 60 µmol/kg ([2]; dose 0.06 millimoles/kg, read-out: A.A. percent inhibition): 78%
CC(CN1CCCCC1)c1cccc(C(=O)c2ccccc2)c1 (stereo not drawn) [Example 14A, 1-[2-(3-Benzoylphenyl)propyl]piperidine hydrochloride] |  | 39% | 49% | 67% |  | 
CC(CN1CCCCC1CC1CCCCC1)c1cccc(C(=NO)c2ccccc2)c1 (stereo not drawn) [Example 15, 2-cyclohexylmethyl-1-[2-(3-benzoylphenyl)propyl]piperidine oxime] | 43% |  | 91% |  | 16% | inhibition in vivo at 20 µmol/kg [2, 6]: 92%
